Experiment: in vitro
Details: human, hela cells, % viability
`Cc1ccc(OCC(=O)Nc2sc(C)c(C)c2C#N)c([N+](=O)[O-])c1` [CBK268162] showed a viability at 28.5 h, 10 µM of 101%. With `Cc1c(C(N)=O)sc(NC(=O)c2cccnc2)c1C#N` [CBK268163] the viability at 28.5 h, 10 µM was 105%. `Cc1sc(NC(=O)COc2ccccc2)c(C(N)=O)c1-c1ccccc1` [CBK268164] showed a viability at 28.5 h, 10 µM of 97.8%. `O=C(Nc1sccc1C(=O)N1CCOCC1)C(Sc1ccccc1)c1ccccc1` (stereo not shown) [CBK268165] gave a viability at 28.5 h, 10 µM of 95%. In the case of `COc1cc(OC)c(NC(=O)c2c(-c3ccccc3)noc2C)cc1Cl` [CBK268167], the viability at 28.5 h, 10 µM is reported as 101%. `COc1ccc(Cl)cc1NC(=O)NCCN1CCCCC1` [CBK268169] gave a viability at 28.5 h, 10 µM of 112%. Work on `O=C(Nc1cccc(S(=O)(=O)N2CCOCC2)c1)c1cc2ccccc2oc1=O` [CBK268170] yielded a viability at 28.5 h, 10 µM of 107%. For `O=C(O)C1C2C=CC(O2)C1C(=O)Nc1ccc(S(=O)(=O)N2CCc3ccccc32)cc1` (stereo not shown) [CBK268176], the viability at 28.5 h, 10 µM was 91.1%. Work on `Cc1cccc(Cn2cnc(NC(=O)COc3ccc([N+](=O)[O-])c(C)c3)n2)c1` [CBK268177] yielded a viability at 28.5 h, 10 µM of 118%. Work on `CCCc1cc(C(N)=O)c(NC(=O)c2sc3ccccc3c2Cl)s1` [CBK268178] yielded a viability at 28.5 h, 10 µM of 103%. In the case of `COc1cc(NS(=O)(=O)c2ccc(NC(=O)c3ccc(C)o3)cc2)nc(OC)n1` [CBK268182], the viability at 28.5 h, 10 µM is reported as 91.6%. `Cc1noc(C)c1C(=O)Nc1ccc(S(=O)(=O)NCCc2ccccc2)cc1` [CBK268183] showed a viability at 28.5 h, 10 µM of 92.8%. In the case of `COc1ccc(C(CC(=O)c2ccc(C)cc2)Nc2ccc([N+](=O)[O-])cc2)cc1` (stereo not shown) [CBK268187], the viability at 28.5 h, 10 µM is reported as 92.2%. `N/C(=N\OC(=O)c1ccccc1CCc1ccccc1)c1cccnc1` [CBK268188] gave a viability at 28.5 h, 10 µM of 91.5%. For `O=C(Nc1cc(Br)ccc1O)c1cnn2c(C(F)(F)F)cc(-c3cccs3)nc12` [CBK268190], the viability at 28.5 h, 10 µM was 96%. With `CN(C)S(=O)(=O)N(CC(=O)NCC1CCCO1)c1ccccc1` (stereo not shown) [CBK268192] the viability at 28.5 h, 10 µM was 103%. Work on `Cc1ccc(Cl)cc1NC(=O)c1cc(NC(=O)C2C3C=CC(C3)C2C(=O)O)ccc1N1CCCCC1` (stereo not shown) [CBK268194] yielded a viability at 28.5 h, 10 µM of 85.9%. `O=C(NCc1ccccn1)c1cnn2c(C(F)(F)F)cc(-c3cccs3)nc12` [CBK268195] gave a viability at 28.5 h, 10 µM of 99.9%. Work on `O=S(=O)(NCc1nc(-c2ccccc2)no1)c1ccc(F)cc1` [CBK268198] yielded a viability at 28.5 h, 10 µM of 93.3%. `Cc1cc2c(=O)n(Cc3ccco3)c(SCc3nc4ccccc4[nH]3)nc2s1` [CBK268202] showed a viability at 28.5 h, 10 µM of 88.2%. Molecule `O=C(COc1ccc(S(=O)(=O)N2CCCCC2)cc1)Nc1ccc2c(c1)OCCO2` [CBK268205] has a viability at 28.5 h, 10 µM of 102%. Work on `COC(=O)Nc1ncc(CN2CCCCC2)s1` [CBK268208] yielded a viability at 28.5 h, 10 µM of 111%. Work on `Fc1ccc(COc2ccc3ccccc3c2CNc2nn[nH]n2)cc1` [CBK268211] yielded a viability at 28.5 h, 10 µM of 86.9%. `CCc1ccc(OC)c(S(=O)(=O)N2CCOCC2)c1` [CBK268214] gave a viability at 28.5 h, 10 µM of 117%. `CC(=O)NCCc1nc2cc(NC(=O)Nc3ccccc3)ccc2n1C` [CBK268216] showed a viability at 28.5 h, 10 µM of 103%. With `Cc1ccc(SCc2ccc(C(=O)Nc3ccccc3C(=O)N3CCCC3)cc2)cc1` [CBK268217] the viability at 28.5 h, 10 µM was 112%. `COc1ccccc1-c1nn2c(Cn3cnc4ccccc43)nnc2s1` [CBK268218] gave a viability at 28.5 h, 10 µM of 93%. `CSc1nc2ccc(S(=O)(=O)NCCOc3ccc(Cl)cc3)cc2s1` [CBK268219] gave a viability at 28.5 h, 10 µM of 81.9%. Molecule `COc1ccc(S(=O)(=O)N(C)CC(=O)N2CCN(Cc3ccccc3)CC2)cc1C` [CBK268221] has a viability at 28.5 h, 10 µM of 99.6%. Molecule `COc1ccc(C)cc1NC(=O)CN(c1ccccc1)S(=O)(=O)c1ccc(F)cc1` [CBK268223] has a viability at 28.5 h, 10 µM of 99.1%. `CCn1nnnc1NCc1ccc(OCc2ccc(F)cc2Cl)c(OC)c1` [CBK268224] gave a viability at 28.5 h, 10 µM of 112%. `Cc1ccc(CCNc2c([N+](=O)[O-])nn(-c3ccc4c(c3)OCCO4)[n+]2[O-])cc1` [CBK268225] gave a viability at 28.5 h, 10 µM of 103%. For `Cc1nn(Cc2ccc(F)cc2)c(C)c1NC(=O)c1cnn2c(C(F)(F)F)cc(-c3ccccc3)nc12` [CBK268231], the viability at 28.5 h, 10 µM was 96.7%. In the case of `CC(C)c1ccc(NC(=O)CSc2nnc(CN3CCOCC3)n2C)cc1` [CBK268235], the viability at 28.5 h, 10 µM is reported as 93.7%.
